# Measured values taken from ChEMBL document CHEMBL4041509, “Structure-activity relationship study of novel 2-aminobenzofuran derivatives as P-glycoprotein inhibitors” (Eur J Med Chem, 2017).
# Active and inactive are the calls of the source. The rule behind the calls is not given here.
# Assays:
# [1] = target: T1, ATP-dependent translocase ABCB1 (Homo sapiens, UniProt P08183); experiment: Inhibition of ABCB1 (unknown origin) expressed in Flp-In-293 cells assessed as increase in calcein-AM uptake at 5 uM preincubated for 30 mins followed by calcein-AM addition measured after 30 mins by fluorescence spectrometric method relative to control; assay type: cell-based; conditions: 0.5 h
# T1 sequence (P08183 whole entry): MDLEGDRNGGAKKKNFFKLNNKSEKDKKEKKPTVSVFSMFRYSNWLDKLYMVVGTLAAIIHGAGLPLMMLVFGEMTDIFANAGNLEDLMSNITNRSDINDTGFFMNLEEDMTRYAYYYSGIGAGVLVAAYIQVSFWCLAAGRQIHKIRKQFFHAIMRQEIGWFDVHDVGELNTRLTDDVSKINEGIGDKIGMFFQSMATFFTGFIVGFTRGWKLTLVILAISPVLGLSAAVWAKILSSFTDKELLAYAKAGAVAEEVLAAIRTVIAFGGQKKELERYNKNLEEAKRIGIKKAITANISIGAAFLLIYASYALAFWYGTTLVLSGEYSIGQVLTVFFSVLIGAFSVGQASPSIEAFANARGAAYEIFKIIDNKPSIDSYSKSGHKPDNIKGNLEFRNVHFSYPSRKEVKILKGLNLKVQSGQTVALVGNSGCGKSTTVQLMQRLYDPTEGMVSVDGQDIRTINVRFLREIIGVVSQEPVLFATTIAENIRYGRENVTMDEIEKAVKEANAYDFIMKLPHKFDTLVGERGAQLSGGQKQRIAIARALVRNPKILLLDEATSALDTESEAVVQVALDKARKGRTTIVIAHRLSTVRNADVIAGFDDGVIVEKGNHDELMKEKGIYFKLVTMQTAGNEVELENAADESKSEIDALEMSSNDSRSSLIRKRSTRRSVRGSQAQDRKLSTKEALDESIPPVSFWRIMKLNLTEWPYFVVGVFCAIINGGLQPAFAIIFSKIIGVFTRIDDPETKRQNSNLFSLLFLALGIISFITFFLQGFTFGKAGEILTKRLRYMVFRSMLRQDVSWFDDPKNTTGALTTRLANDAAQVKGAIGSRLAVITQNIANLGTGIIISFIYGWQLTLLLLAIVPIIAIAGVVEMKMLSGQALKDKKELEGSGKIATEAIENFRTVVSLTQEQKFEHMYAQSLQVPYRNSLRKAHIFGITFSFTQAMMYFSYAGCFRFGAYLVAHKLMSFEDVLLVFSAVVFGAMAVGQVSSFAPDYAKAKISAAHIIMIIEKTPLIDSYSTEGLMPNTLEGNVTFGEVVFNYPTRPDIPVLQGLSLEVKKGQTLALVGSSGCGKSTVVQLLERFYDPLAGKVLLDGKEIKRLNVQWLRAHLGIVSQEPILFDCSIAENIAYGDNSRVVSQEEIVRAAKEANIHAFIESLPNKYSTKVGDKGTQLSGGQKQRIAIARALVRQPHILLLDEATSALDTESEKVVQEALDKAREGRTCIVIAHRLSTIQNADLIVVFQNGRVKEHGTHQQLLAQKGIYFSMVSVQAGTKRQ
# [2] = target: T1, ATP-dependent translocase ABCB1; experiment: Inhibition of ABCB1 (unknown origin) expressed in human Flp-In-293 cells assessed as potentiation of doxorubicin-induced cytotoxicity by SRB assay; assay type: cell-based
# Homo sapiens [3] = species: Homo sapiens; experiment: Inhibition of P-gp in human HeLaS3 cells assessed as potentiation of vincristine-induced cytotoxicity by SRB assay; assay type: cell-based
# [4] = target: T1, ATP-dependent translocase ABCB1; experiment: Inhibition of ABCB1 (unknown origin) expressed in human Flp-In-293 cells assessed as potentiation of paclitaxel-induced cytotoxicity at 1 uM by SRB assay relative to control; assay type: cell-based
# Homo sapiens [5] = species: Homo sapiens; experiment: Inhibition of P-gp in human HeLaS3 cells assessed as potentiation of vincristine-induced cytotoxicity at 1 uM by SRB assay relative to control; assay type: cell-based
# HEK293 [6] = experiment: Effect on ABCB1 mRNA expression in human Flp-In-293 cells at 5 uM after 72 hrs by qRT-PCR method; assay type: functional, cell-based
# HEK293 [7] = experiment: Potentiation of doxorubicin-induced cytotoxicity against human Flp-In-293 cells at 2.5 uM by SRB assay relative to control; assay type: functional
# Homo sapiens [8] = species: Homo sapiens; experiment: Inhibition of P-gp in human KBVIN cells assessed as potentiation of paclitaxel-induced cytotoxicity at 1 uM by SRB assay relative to control; assay type: cell-based
# [9] = target: T1, ATP-dependent translocase ABCB1; experiment: Inhibition of ABCB1 (unknown origin) expressed in human Flp-In-293 cells assessed as potentiation of paclitaxel-induced cytotoxicity at 2.5 uM by SRB assay relative to control; assay type: cell-based
# HEK293 [10] = experiment: Potentiation of paclitaxel-induced cytotoxicity against human Flp-In-293 cells at 1 uM by SRB assay relative to control; assay type: functional
# [11] = target: T1, ATP-dependent translocase ABCB1; experiment: Inhibition of ABCB1 (unknown origin) expressed in human Flp-In-293 cells assessed as potentiation of doxorubicin-induced cytotoxicity at 2.5 uM by SRB assay relative to control; assay type: cell-based
# HEK293 [12] = experiment: Cytotoxicity against human Flp-In-293 cells assessed as reduction in cell viability by SRB assay; assay type: cell-based
# Homo sapiens [13] = species: Homo sapiens; experiment: Inhibition of P-gp in human HeLaS3 cells assessed as potentiation of vincristine-induced cytotoxicity at 2.5 uM by SRB assay relative to control; assay type: cell-based
# Homo sapiens [14] = species: Homo sapiens; experiment: Inhibition of P-gp in human KBVIN cells assessed as potentiation of doxorubicin-induced cytotoxicity by SRB assay; assay type: cell-based
# HEK293 [15] = experiment: Potentiation of paclitaxel-induced cytotoxicity against human Flp-In-293 cells at 2.5 uM by SRB assay relative to control; assay type: functional
# [16] = target: T1, ATP-dependent translocase ABCB1; experiment: Inhibition of ABCB1 (unknown origin) expressed in human Flp-In-293 cells assessed as potentiation of paclitaxel-induced cytotoxicity by SRB assay; assay type: cell-based
# HEK293 [17] = experiment: Potentiation of vincristine-induced cytotoxicity against human Flp-In-293 cells at 1 uM by SRB assay relative to control; assay type: functional
# Homo sapiens [18] = species: Homo sapiens; experiment: Inhibition of P-gp in human HeLaS3 cells assessed as potentiation of paclitaxel-induced cytotoxicity at 1 uM by SRB assay relative to control; assay type: cell-based
# [19] = target: T1, ATP-dependent translocase ABCB1; experiment: Inhibition of ABCB1 (unknown origin) expressed in human Flp-In-293 cells assessed as potentiation of doxorubicin-induced cytotoxicity at 1 uM by SRB assay relative to control; assay type: cell-based
# HeLa S3 = experiment: Cytotoxicity against human HeLaS3 assessed as reduction in cell viability by SRB assay; assay type: cell-based
# HEK293 [20] = experiment: Potentiation of vincristine-induced cytotoxicity against human Flp-In-293 cells at 2.5 uM by SRB assay relative to control; assay type: functional
# [21] = target: T1, ATP-dependent translocase ABCB1; experiment: Inhibition of ABCB1 (unknown origin) expressed in Flp-In-293 cells assessed as increase in calcein-AM uptake at 10 uM preincubated for 30 mins followed by calcein-AM addition measured after 30 mins by fluorescence spectrometric method relative to control; assay type: cell-based; conditions: 0.5 h
# Homo sapiens [22] = species: Homo sapiens; experiment: Inhibition of P-gp in human KBVIN cells assessed as potentiation of vincristine-induced cytotoxicity at 1 uM by SRB assay relative to control; assay type: cell-based
# Homo sapiens [23] = species: Homo sapiens; experiment: Inhibition of P-gp in human HeLaS3 cells assessed as potentiation of doxorubicin-induced cytotoxicity at 1 uM by SRB assay relative to control; assay type: cell-based
# Homo sapiens [24] = species: Homo sapiens; experiment: Inhibition of P-gp in human HeLaS3 cells assessed as potentiation of doxorubicin-induced cytotoxicity by SRB assay; assay type: cell-based
# Homo sapiens [25] = species: Homo sapiens; experiment: Inhibition of P-gp in human KBVIN cells assessed as potentiation of doxorubicin-induced cytotoxicity at 2.5 uM by SRB assay relative to control; assay type: cell-based
# Homo sapiens [26] = species: Homo sapiens; experiment: Inhibition of P-gp in human KBVIN cells assessed as potentiation of paclitaxel-induced cytotoxicity by SRB assay; assay type: cell-based
# HEK293 [27] = experiment: Cytotoxicity against human Flp-In-293 cells expressing MDR1 assessed as reduction in cell viability by SRB assay; assay type: ADME, cell-based
# HEK293 [28] = experiment: Effect on ABCB1 mRNA expression in human Flp-In-293 cells expressing ABCB1 at 5 uM after 72 hrs by qRT-PCR method; assay type: functional, cell-based
# Homo sapiens [29] = species: Homo sapiens; experiment: Inhibition of P-gp in human KBVIN cells assessed as potentiation of paclitaxel-induced cytotoxicity at 2.5 uM by SRB assay relative to control; assay type: cell-based
# Homo sapiens [30] = species: Homo sapiens; experiment: Inhibition of P-gp in human KBVIN cells assessed as potentiation of vincristine-induced cytotoxicity at 2.5 uM by SRB assay relative to control; assay type: cell-based
# [31] = target: T1, ATP-dependent translocase ABCB1; experiment: Inhibition of ABCB1 (unknown origin) expressed in human Flp-In-293 cells assessed as potentiation of vincristine-induced cytotoxicity at 2.5 uM by SRB assay relative to control; assay type: cell-based
# Homo sapiens [32] = species: Homo sapiens; experiment: Inhibition of P-gp in human HeLaS3 cells assessed as potentiation of paclitaxel-induced cytotoxicity by SRB assay; assay type: cell-based
# Homo sapiens [33] = species: Homo sapiens; experiment: Inhibition of P-gp in human HeLaS3 cells assessed as potentiation of doxorubicin-induced cytotoxicity at 2.5 uM by SRB assay relative to control; assay type: cell-based
# Homo sapiens [34] = species: Homo sapiens; experiment: Inhibition of P-gp in human KBVIN cells assessed as potentiation of doxorubicin-induced cytotoxicity at 1 uM by SRB assay relative to control; assay type: cell-based
# Homo sapiens [35] = species: Homo sapiens; experiment: Inhibition of P-gp in human HeLaS3 cells assessed as potentiation of paclitaxel-induced cytotoxicity at 2.5 uM by SRB assay relative to control; assay type: cell-based
# [36] = Cytotoxicity against human KBVIN assessed as reduction in cell viability by SRB assay; assay type: cell-based
# Homo sapiens [37] = species: Homo sapiens; experiment: Inhibition of P-gp in human KBVIN cells assessed as potentiation of vincristine-induced cytotoxicity by SRB assay; assay type: cell-based
# [38] = target: T1, ATP-dependent translocase ABCB1; experiment: Inhibition of ABCB1 (unknown origin) expressed in human Flp-In-293 cells assessed as potentiation of vincristine-induced cytotoxicity at 1 uM by SRB assay relative to control; assay type: cell-based
# HEK293 [39] = experiment: Potentiation of doxorubicin-induced cytotoxicity against human Flp-In-293 cells at 1 uM by SRB assay relative to control; assay type: functional
# [40] = target: T1, ATP-dependent translocase ABCB1; experiment: Inhibition of ABCB1 (unknown origin) expressed in human Flp-In-293 cells assessed as potentiation of vincristine-induced cytotoxicity by SRB assay; assay type: cell-based
smiles,measurement,setting,value
COc1ccc(-c2cc(OCCN3CCCC3)c3c(-c4cccs4)c(N)oc3c2)cc1OC,fold change (FC),[1],8.52
same,inhibition (INH),[2],Dose-dependent effect
same,inhibition,Homo sapiens [3],Dose-dependent effect
same,fold change (FC),[4],1.23
same,fold change (FC),Homo sapiens [5],1.17
same,Activity,HEK293 [6],inactive
same,fold change (FC),HEK293 [7],0.96
same,fold change (FC),Homo sapiens [8],2.55
same,fold change (FC),[9],2.65
same,fold change (FC),HEK293 [10],0.92
same,fold change (FC),[11],3.95
same,IC50,HEK293 [12],36.5 µM
same,fold change (FC),Homo sapiens [13],1.08
same,inhibition,Homo sapiens [14],Dose-dependent effect
same,fold change (FC),HEK293 [15],1.38
same,inhibition (INH),[16],Dose-dependent effect
same,fold change (FC),HEK293 [17],4.25
same,fold change (FC),Homo sapiens [18],3.8
same,fold change (FC),[19],2.78
same,IC50,HeLa S3,38 µM
same,fold change (FC),HEK293 [20],8.36
same,fold change (FC),[21],9.12
same,fold change (FC),Homo sapiens [22],25.7
same,fold change (FC),Homo sapiens [23],0.9
same,inhibition,Homo sapiens [24],Dose-dependent effect
same,fold change (FC),Homo sapiens [25],1.88
same,inhibition,Homo sapiens [26],Dose-dependent effect
same,IC50,HEK293 [27],37 µM
same,Activity,HEK293 [28],inactive
same,fold change (FC),Homo sapiens [29],9.27
same,fold change (FC),Homo sapiens [30],34.2
same,fold change (FC),[31],5.92
same,inhibition,Homo sapiens [32],Dose-dependent effect
same,fold change (FC),Homo sapiens [33],2.71
same,fold change (FC),Homo sapiens [34],1.51
same,fold change (FC),Homo sapiens [35],3.97
same,IC50,[36],36.3 µM
same,inhibition,Homo sapiens [37],Dose-dependent effect
same,fold change (FC),[38],1.69
same,fold change (FC),HEK293 [39],0.91
same,inhibition (INH),[40],Dose-dependent effect
COc1ccc(-c2cc(OCCN3CCCC3)c3c(-c4cccs4)c(N)oc3c2)cc1,fold change (FC),[1],6.78
same,inhibition (INH),[2],Dose-dependent effect
same,inhibition,Homo sapiens [3],Dose-dependent effect
same,fold change (FC),[4],1.18
same,fold change (FC),Homo sapiens [5],1.08
same,Activity,HEK293 [6],inactive
same,fold change (FC),HEK293 [7],0.97
same,fold change (FC),Homo sapiens [8],2.8
same,fold change (FC),[9],10.03
same,fold change (FC),HEK293 [10],0.98
same,fold change (FC),[11],6.14
same,IC50,HEK293 [12],33.5 µM
same,fold change (FC),Homo sapiens [13],1.13
same,inhibition,Homo sapiens [14],Dose-dependent effect
same,fold change (FC),HEK293 [15],1.39
same,inhibition (INH),[16],Dose-dependent effect
same,fold change (FC),HEK293 [17],1.95
same,fold change (FC),Homo sapiens [18],3.69
same,fold change (FC),[19],2.65
same,IC50,HeLa S3,38.1 µM
same,fold change (FC),HEK293 [20],7.15
same,fold change (FC),[21],10.4
same,fold change (FC),Homo sapiens [22],177
same,fold change (FC),Homo sapiens [23],1.1
same,inhibition,Homo sapiens [24],Dose-dependent effect
same,fold change (FC),Homo sapiens [25],1.94
same,inhibition,Homo sapiens [26],Dose-dependent effect
same,IC50,HEK293 [27],36.4 µM
same,Activity,HEK293 [28],inactive
same,fold change (FC),Homo sapiens [29],14.7
same,fold change (FC),Homo sapiens [30],260
same,fold change (FC),[31],9.07
same,inhibition,Homo sapiens [32],Dose-dependent effect
same,fold change (FC),Homo sapiens [33],1.47
same,fold change (FC),Homo sapiens [34],1.37
same,fold change (FC),Homo sapiens [35],4.06
same,IC50,[36],35.5 µM
same,inhibition,Homo sapiens [37],Dose-dependent effect
same,fold change (FC),[38],2.58
same,fold change (FC),HEK293 [39],0.98
same,inhibition (INH),[40],Dose-dependent effect
COc1ccc(-c2cc(OCc3ccc([N+](=O)[O-])cc3)c3c(-c4cccs4)c(N)oc3c2)cc1,fold change (FC),[1],0.78
same,fold change (FC),[21],0.85
COc1ccc(-c2cc(OCc3ccccc3)c3c(-c4cccs4)c(N)oc3c2)cc1,fold change (FC),[1],0.81
same,fold change (FC),[21],0.85
COc1ccc(-c2cc(OCc3ccncc3)c3c(-c4cccs4)c(N)oc3c2)cc1,fold change (FC),[1],4.33
same,fold change (FC),[21],5.88
COc1ccc(-c2cc(OCc3ccncc3)c3c(-c4cccs4)c(N)oc3c2)cc1OC,fold change (FC),[1],5.93
same,fold change (FC),[21],7.79
